Measured values from patent publication US12012413B2, “Methods of treating painful diabetic peripheral neuropathy” (Tenacia Biotechnology (Hong Kong) Co., Limited, priority 2019, dated 2024).
Converted amounts (≈) assume the structure as drawn. Like-named read-outs stand apart in the source and are kept apart here.

Experiments:
Assay type in all cases: physicochemical
[1] = Solid form conversion / physical stability (XRPD); conditions: ambient conditions of temperature and humidity; versus anhydrous Forms A, B, and C
Description: X-ray powder diffraction (XRPD) analysis was carried out on a Stoe Stadi P with Mythen1K detector; Cu-Kα1 radiation; 40 kV and 40 mA tube power; curved Ge monochromator; 0.02° 2θ step size, 12 s step time, 1.5-50.5° 2θ scanning range; detector mode: step scan; 1° 2θ detector step. The sample (about 20 mg) was placed between two acetate foils and clamped in a Stoe transmission sample holder. The sample holder was rotated during the measurement.
X-ray powder diffraction (XRPD) analysis was also carried out on a on a Bruker D8 Advance; Cu-Kα radiation; standard measurement conditions: Bragg-Brentano reflection geometry; 40 kV and 40 mA tube power; LynxEye detector; 0.02° 2θ step size, 37 s step time, 2.5-50.5° 2θ scanning range (about 10 min measurement time. The sample was spread on a silicon single crystal substrate without cavity and flattened to fit to the 0.1 mm depth of the sample holder.
Crystalline, anhydrous Form C material of 3-hydroxy-2-(5-isobutyryl-1-oxo-2,5-diazaspiro[3.4]octan-2-yl)butanamide is not stable in comparison to anhydrous Form A or anhydrous Form B under ambient conditions of temperature and humidity. […] In turn, anhydrous Form A and anhydrous Form B each convert to monohydrate Form MH under the conditions described above.

[2] = Approximate solubility by stepwise dilution in solvents and solvent mixtures; conditions: 22 °C, about 22° C., read-out: Solubility S
Description: Approximate solubilities were determined by a stepwise dilution of a suspension of about 10 mg of substance in 0.05 mL of solvent. If the substance was not dissolved by addition of a total of at least 10 ml solvent, the solubility was indicated as <1 mg/mL. For all experiments, analytical grade solvents were used.
The approximate solubility of crystalline, monohydrate Form MH of NYX-2925 across a range of solvents and solvent mixtures (expressed in volume ratios measured at about 22° C.) is provided in Table 8, below.

[3] = Dynamic vapor sorption (DVS) profile
Source text: FIG. 4 depicts the dynamic sorption vapor (DVS) profile of crystalline, monohydrate Form MH of NYX-2925. […] This is a fully reversible process and the sample loses this water when decreasing the relative humidity with a negligible hysteresis. At low relative humidity there is the release and uptake of about 5.5 wt. % in the range of about 0% to about 15% relative humidity with about 10% relative humidity hysteresis. The monohydrate Form MH of NYX-2925 retains about 5.7 weight % water content, corresponding to the stoichiometric water content of the, monohydrate, over the range of about 10% to about 80% relative humidity with less than 0.5 wt. % change. There is minimal water uptake above 80% relative humidity and about 1 weight % gain in the 90% to 95% relative humidity range.

[4] = Stability of monohydrate drug substance and oral capsules on storage
Source text: NYX-2925 monohydrate drug product was formulated with the pharmaceutically acceptable excipients: microcrystalline cellulose, starch, and magnesium stearate.

[5] = Solubility and stability of saturated solutions in pH 2-8 buffers at 25° C. (HPLC); conditions: for solubility at 1 day / solubility at 4 days / solubility at 7 days: ca. 25° C., read-out: solubility in an aqueous solvent; for solubility at 1 day: after about 1 day; for solubility at 4 days: after about 4 days; for solubility at 7 days: after about 7 days
Description: Crystalline, monohydrate Form MH of (2S,3R)-3-hydroxy-2-((R)-5-isobutyryl-1-oxo-2,5-diazaspiro[3.4]octan-2-yl)butanamide was prepared as follows. Saturated solutions of 3-hydroxy-2-(5-isobutyryl-1-oxo-2,5-diazaspiro[3.4]octan-2-yl)butanamide were prepared in pH 2, pH 3, pH 5, pH 7, and pH 8 buffers and were stirred at 25° C. Aliquots were taken after 1 day, 4 days, and 7 days and centrifuged at 12,500 rpm for 15 minutes. The supernatant was analyzed for sample concentration by HPLC, and the residual solids were analyzed by XRPD after 1 day, 4 days, and 7 days.

[6] = aqueous buffer, pH 2, aqueous buffer, thermodynamic from solid, pH of about 2
[7] = aqueous buffer, pH 3, aqueous buffer, thermodynamic from solid, pH of about 3
[8] = aqueous buffer, pH 5, aqueous buffer, thermodynamic from solid, pH of about 5
[9] = aqueous buffer, pH 7, aqueous buffer, thermodynamic from solid, pH of about 7
[10] = aqueous buffer, pH 8, aqueous buffer, thermodynamic from solid, pH of about 8

- relative stability of crystalline forms [1]: more stable
- solubility ([2]; 1,4-dioxane, organic solvent or mixture, thermodynamic from solid, 1,4-dioxane): 28 to 31 mg/mL (≈ 94.2 to 104 mM)
- solubility ([2]; 1/1 dichloromethane/methanol (v/v), organic solvent or mixture, thermodynamic from solid, 1/1 dichloromethane/methanol (volume ratio)): > 200 mg/mL
- solubility ([2]; 1/1 ethanol/water (v/v), aqueous with cosolvent or surfactant or cyclodextrin, thermodynamic from solid, 1/1 ethanol/water (volume ratio)): 69 to 103 mg/mL
- solubility ([2]; 1/1 isopropanol/water (v/v), aqueous with cosolvent or surfactant or cyclodextrin, thermodynamic from solid, 1/1 isopropanol/water (volume ratio)): 71 to 107 mg/mL
- solubility ([2]; 1/1 methanol/water (v/v), aqueous with cosolvent or surfactant or cyclodextrin, thermodynamic from solid, 1/1 methanol/water (volume ratio)): > 200 mg/mL
- solubility ([2]; 10/1 ethyl acetate/ethanol (v/v), organic solvent or mixture, thermodynamic from solid, 10/1 ethyl acetate/ethanol (volume ratio)): 32 to 39 mg/mL
- solubility ([2]; 10/1 isopropanol/water (v/v), organic solvent or mixture, thermodynamic from solid, 10/1 isopropanol/water (volume ratio)): 36 to 41 mg/mL
- solubility ([2]; acetone, organic solvent or mixture, thermodynamic from solid, acetone): 57 to 76 mg/mL (≈ 192 to 256 mM)
- solubility ([2]; acetonitrile, organic solvent or mixture, thermodynamic from solid, acetonitrile): 118 to 230 mg/mL (≈ 397 to 773 mM)
- solubility ([2]; aniline, organic solvent or mixture, thermodynamic from solid, aniline): > 200 mg/mL
- solubility ([2]; anisole, organic solvent or mixture, thermodynamic from solid, anisole): ~3 mg/mL (≈ 10.1 mM)
- solubility ([2]; cyclohexane, organic solvent or mixture, thermodynamic from solid, cyclohexane): ~1 mg/mL (≈ 3.36 mM)
- solubility ([2]; dichloromethane, organic solvent or mixture, thermodynamic from solid, dichloromethane): 55 to 73 mg/mL (≈ 185 to 245 mM)
- solubility ([2]; diisopropyl ether, organic solvent or mixture, thermodynamic from solid, diisopropyl ether): < 1 mg/mL
- solubility ([2]; dimethyl sulfoxide, organic solvent or mixture, thermodynamic from solid, dimethyl sulfoxide): > 200 mg/mL
- solubility ([2]; dimethylformamide, organic solvent or mixture, thermodynamic from solid, dimethylformamide): > 200 mg/mL
- solubility ([2]; ethanol, organic solvent or mixture, thermodynamic from solid, ethanol): > 200 mg/mL
- solubility ([2]; ethyl acetate saturated with water, organic solvent or mixture, thermodynamic from solid, ethyl acetate saturated with water): 6 to 8 mg/mL (≈ 20.2 to 26.9 mM)
- solubility ([2]; ethyl acetate, organic solvent or mixture, thermodynamic from solid, ethyl acetate): 13 to 15 mg/mL (≈ 43.7 to 50.4 mM)
- solubility ([2]; heptane, organic solvent or mixture, thermodynamic from solid, heptane): < 1 mg/mL
- solubility ([2]; isopropanol, organic solvent or mixture, thermodynamic from solid, isopropanol): 45 to 60 mg/mL (≈ 151 to 202 mM)
- solubility ([2]; isopropyl acetate, organic solvent or mixture, thermodynamic from solid, isopropyl acetate): 5 to 6 mg/mL (≈ 16.8 to 20.2 mM)
- solubility ([2]; methanol, organic solvent or mixture, thermodynamic from solid, methanol): > 200 mg/mL
- solubility ([2]; methyl ethyl ketone, organic solvent or mixture, thermodynamic from solid, methyl ethyl ketone): 32 to 38 mg/mL (≈ 108 to 128 mM)
- solubility ([2]; tert-butyl methyl ether saturated with water, organic solvent or mixture, thermodynamic from solid, tert-butyl methyl ether saturated with water): < 1 mg/mL
- solubility ([2]; tert-butyl methyl ether, organic solvent or mixture, thermodynamic from solid, tert-butyl methyl ether): < 1 mg/mL
- solubility ([2]; tetrahydrofuran, organic solvent or mixture, thermodynamic from solid, tetrahydrofuran): 31 to 36 mg/mL (≈ 104 to 121 mM)
- solubility ([2]; toluene, organic solvent or mixture, thermodynamic from solid, toluene): < 1 mg/mL
- solubility ([2]; triethylamine, organic solvent or mixture, thermodynamic from solid, triethylamine): < 1 mg/mL
- solubility ([2]; water, water, thermodynamic from solid, water): 26 to 30 mg/mL (≈ 87.4 to 101 mM)
- DVS weight gain ([3]; 90% to 95% relative humidity range): about 1 weight %
- DVS release and uptake of water (reversible weight loss) ([3]; about 0% to about 15% relative humidity, about 10% RH hysteresis): about 5.5 wt. %
- DVS water content retained ([3]; about 10% to about 80% relative humidity): about 5.7 weight %
- DVS continuous reversible uptake of water ([3]; from about 50% to about 95% relative humidity, mainly above 90%): about 1.5 wt. %
- DVS change in water content ([3]; over about 10% to about 80% relative humidity): less than 0.5 wt. %
- changes in impurity profile or other quality attributes (appearance, assay, water content, microbial examination, XRPD) ([4]; 6 months at 40° C./75% relative humidity): no significant changes
- changes in impurity profile or other quality attributes (appearance, assay, water content, microbial examination, XRPD) ([4]; 12 months at 25° C./60% relative humidity): no significant changes
- solubility at 1 day [5, 6]: ~54.1 mg/mL (≈ 182 mM)
- solubility at 4 days [5, 6]: ~53.5 mg/mL (≈ 180 mM)
- solubility at 7 days [5, 6]: ~53.5 mg/mL (≈ 180 mM)
- solubility at 1 day [5, 7]: ~54.2 mg/mL (≈ 182 mM)
- solubility at 4 days [5, 7]: ~53.2 mg/mL (≈ 179 mM)
- solubility at 7 days [5, 7]: ~52.4 mg/mL (≈ 176 mM)
- solubility at 1 day [5, 8]: ~52.5 mg/mL (≈ 177 mM)
- solubility at 4 days [5, 8]: ~53.2 mg/mL (≈ 179 mM)
- solubility at 7 days [5, 8]: ~52.4 mg/mL (≈ 176 mM)
- solubility at 1 day [5, 9]: ~52.6 mg/mL (≈ 177 mM)
- solubility at 4 days [5, 9]: ~53 mg/mL (≈ 178 mM)
- solubility at 7 days [5, 9]: ~52.3 mg/mL (≈ 176 mM)
- solubility at 1 day [5, 10]: ~52.7 mg/mL (≈ 177 mM)
- solubility at 4 days [5, 10]: ~51.6 mg/mL (≈ 174 mM)
- solubility at 7 days [5, 10]: ~52.6 mg/mL (≈ 177 mM)
- solubility thermodynamic at 7 days ([5]; pH 2, pH 3, pH 5, pH 7 and pH 8 buffers, aqueous buffer, thermodynamic from solid, pH ranges of 2-8, 25° C., after 7 days, read-out: saturated concentration in buffers): ~50 mg/mL (≈ 168 mM)
- stability in saturated buffer solutions (HPLC analysis) ([5]; pH ranges of 2-8, 25° C., after 7 days): stable
Structure (SMILES): CC(C)C(=O)N1CCC[C@]12CN([C@H](C(N)=O)[C@@H](C)O)C2=O [Form MH, (2S,3R)-3-hydroxy-2-((R)-5-isobutyryl-1-oxo-2,5-diazaspiro[3.4]octan-2-yl)butanamide]
